Measured values from patent US7368605B2, “Variously substituted derivatives of guanidine, and their use as medicines with anti-diabetes and/or anti-obesity activity” (Sigma-Tau Industrie Farmaceutiche Riunite S.p.A., priority 2002, dated 2008).
Read-outs that look alike come from different tables or passages of the source.

Columns and labels:
C57BL/KsJ db/db mice [1] = experiment: Consumption of water and food by db/db mice; settings: male db/db mice, control = 100
Description: The C57BL/KsJ db/db mice used in the experiments reported here below were supplied by Jackson Lab (via Ch. River).

C57BL/KsJ db/db mice [2] = experiment: Serum glucose levels in db/db mice after 4 days of subcutaneous treatment; settings: male db/db mice, postabsorption conditions, 8 hours after last treatment, control = 100
rat = settings: oral administration; cited from earlier work
diabetic patients = settings: cited from earlier work
ob/ob mouse = experiment: Reduction in hyperglycaemia in the ob/ob mouse (laboratory experiments); settings: oral dose of 600 mg/kg/day
KKAy mouse = settings: oral dose of 900 mg/kg/day; cited from earlier work
[3] = 100 mg/kg s.c. twice daily for 4 days
[4] = 25 mg/kg s.c. twice daily for 4 days

**Q.** With `CN(C)C(=N)N=C(N)N` [Metformin] as the compound, how does the “Food % (consumption, variation vs Control)” value (from here on “Food %”) (C57BL/KsJ db/db mice [1]; [3]) read?
**A.** 119%

**Q.** What about the “Water % (consumption, variation vs Control)” value (shortened to “Water %”) (C57BL/KsJ db/db mice [1]; [3]) of the same compound?
**A.** 113%

**Q.** What about the “Glucose % (variation vs Control)” value (C57BL/KsJ db/db mice [2]; [3]) of the same compound?
**A.** 104%

**Q.** And the LD50 (rat)?
**A.** 1000 mg/kg

**Q.** And the reduction of hyperglycaemia (diabetic patients; in combination with sulphonylureas)?
**A.** 25%

**Q.** And the reduction of hyperglycaemia (diabetic patients; monotherapy after the failure of diet and physical exercise)?
**A.** 20-30%

**Q.** And the reduction in hyperglycaemia (ob/ob mouse)?
**A.** 22%

**Q.** And the reduction in hyperglycaemia (KKAy mouse)?
**A.** 50%

**Q.** For `CC(C)=CCNC(=N)NCCCCN.CS(=O)(=O)O` [ST2369, N-(4-aminobutyl)-N′-(γ,γ-dimethylallyl)guanidine methane sulphonate], which “Food %” value (C57BL/KsJ db/db mice [1]; [4]) is on record?
**A.** 63%

**Q.** What about the “Water %” value (C57BL/KsJ db/db mice [1]; [4]) of the same compound?
**A.** 47%

**Q.** For `CC(C)=CCNC(=N)NCCCCCCN.CS(=O)(=O)O` [ST2370, N-(γ,γ-dimethylallyl)-N′-(6-aminohexyl)guanidine methane sulphonate], which “Food %” value (C57BL/KsJ db/db mice [1]; [4]) is on record?
**A.** 81%

**Q.** And the “Water %” value (C57BL/KsJ db/db mice [1]; [4])?
**A.** 47%

**Q.** What about the “Glucose % (variation vs Control)” value (C57BL/KsJ db/db mice [2]; [4]) of the same compound?
**A.** 69 □ %
